Data from patent US20200323212A1, “PEST CONTROL COMPOSITION AND USE OF SAME” (SUMITOMO CHEMICAL COMPANY, LIMITED, priority 2017, published 2020).

System: ticks
Experiment: Vial contact test, tick mortality after 48 hours (Test Examples 11, 14, 15)
Format: in vivo
Procedure: The Colby's calculation equation is shown as Equation 1 below.
E=X+Y−X×Y/100 (Equation 1)
Zero point two (0.2) mL of the solution was dropped to a 20 mL volume of vial, and the inner wall of the vial was coated homogeneously with the chemicals, and air-dried. Thereafter, ten ticks were released in the vial, and the vials were sealed with a lid. After 48 hours, the number of died ticks were examined, and the mortality (%) was calculated by the following equation 2. The three repetitions of each application dose were conducted.
Mortality (%)=(Number of dead pests/Number of supplied pests)×100 (Equation 2)
Zero point two (0.2) mL of the solution was dropped to a 20 mL volume of a vial, and the inner wall of the vial was coated homogeneously with the chemicals, and air-dried. Thereafter, ten ticks were released in the vial, and the vials were sealed with a lid. After 48 hours, the number of died ticks were examined, and the mortality (%) was calculated by the following equation 5. The three repetitions of each application dose were conducted.
Mortality (%)=(Number of dead pests/Number of supplied pests)×100 (Equation 5)
Zero point two (0.2) mL of the solution was dropped to a 20 mL volume of a vial, and the inner wall of the vial was coated homogeneously with the chemicals, and air-dried. Thereafter, ten ticks were released in the vial, and the vials were sealed with a lid. After 48 hours, the number of died ticks were examined, and the mortality (%) was calculated by the following equation 6. The three repetitions of each application dose were conducted.
Mortality (%)=(Number of dead pests/Number of supplied pests)×100 (Equation 6)

SMILES: CCN(CC)C(=O)c1cccc(C)c1 [N,N-diethyl-m-toluamide]
- Mortality (Measured value) (N,N-diethyl-m-toluamide alone 10 mg/m^2): 40%
- Mortality (Measured value) (N,N-diethyl-m-toluamide alone 20 mg/m^2): 50%

SMILES: CCC(C)OC(=O)N1CCCCC1CCO (stereo not drawn) [sec-butyl=2-(2-hydroxyethyl)piperidine-1-carboxylate]
- Mortality (Measured value) (sec-butyl=2-(2-hydroxyethyl)piperidine-1-carboxylate alone 10 mg/m^2): 70%
